# According to patent US10183027B2, “Lanthanide toolbox for multi-modal, non-invasive tumor specific theranostic prodrugs” (priority 2016, dated 2019):
# What was measured:
# HeLa cells [1] = assay: Two-photon confocal microscopy of HeLa cells with PtEuL / EuL; format: cell-based
# Method: Near infrared (NIR) excitation has increasingly been used in live cell imaging and photodynamic or photoactivated chemo-therapy because NIR photon (λ=650-900 nm) can penetrate deeper into tissues with pinpoint accuracy and little collateral photodamage. The two-photon photophysical properties of some antenna ligands of lanthanide complexes have been studied previously. The two-photon induced cytotoxicity of the EuL and PtEuL complexes towards HeLa cells after incubation at different dose concentrations (PtEuL: 0, 1, 2, 5, 10 μM; EuL: 0, 10, 20, 50, 100 μM) for 24 hours was studied using two-photon (λex=730 nm) confocal microscopy (FIGS. 30A-30C and FIGS. 33A and 33B). […] This is probably due to the lower cellular uptake rate of EuL because we no Eu emission was observed from the HeLa cells even after incubation in 100 μM of EuL, ceteris paribus.
# HeLa cells [2] = assay: Dark and photo cytotoxicity of RuEuL against HeLa cells; format: cell-based, human
# Method: To determine the potential of RuEuL as a photo-controlled prodrug cell cytotoxicity studies were performed on human cervical cancer (HeLa) cells, and EuL as control (FIGS. 25A and 25B). Cells were incubated 6 hours in the dark before irradiation (488 nm, 1 J); dark controls were run in parallel.
# Plasmid DNA [3] = assay: Circular dichroism of plasmid DNA with PtEuL in dark; format: binding; settings: 50 μM, 37° C., 12 h
# Description: (§1) Direct binding of PtEuL with DNA in dark were studied by circular dichroism (CD). […] The interaction of photo-activated PtEuL with DNA was examined by agarose gel electrophoresis (FIG. 29B). After UVA irradiation with PtEuL, conversion of the supercoiled conformer of the plasmid DNA to its open-circular conformer, which indicates DNA nicking (single strand break) and linear conformer, which indicates double strand break, is clearly seen.
# HeLa = assay: Dark cytotoxicity of Eu(III) complexes on HeLa cells; format: cell-based
# [4] = Photo-induced dissociation of the cisplatin unit in tris buffer monitored by emission; format: physicochemical
# Method: One of the key issues is the photodissociation level of the Pt moiety from the compounds described herein. The triplet states of the chromophores before and after photo-release the drug or upon binding with αvβ3 isoform were measured. Based on the synthetic protocols described herein, La (lanthanum) and Gd (gadolinium) analogs can be synthesized to measure the triplet states of the chromophores as well. The measurements of the triplet states of these chromophores phosphorescence and their phosphorescence lifetime was undertaken at low temperature (77K). The photodissociation kinetics of PtEuL were investigated by monitoring the emission spectrum with different irradiation times of UVA/NIR (light dosage=4 J cm^−2). The plot of responsive and initial emission intensity at 615 nm (^5D0→^7F2) vs time will be fitted in the exponential growth and decay equation to obtain the pseudo-first order rate constant.
# The linear light induced dissociation of PtGdL in tris buffer (20 mM Tris base, 50 mM NaCl, pH 7.4) was monitored by determination of the emission intensity of solution of PtGdL in tris buffer with different light dosage of 365 nm UV light. In general, 3 mL of the solution of PtGdL (3 μM in tris buffer) in a 3.5 mL quartz cuvette was irradiated with a 365 nm UV lamp (5 mW) with stirring. The emission spectra of the solution were recorded at different time points (0, 1, 3, 5, 7, 10, 15, 20, 30, 45, 60, 75 and 90 min).
# (Ln=Eu or Gd). The solution-state electronic adsorption and emission spectra of all the complexes and the ligand were recorded at 298 K (FIGS. 28A-28D). The EuL complex is the product of PtEuL after photo-dissociation and was used to monitor the photo-dissociation of [Pt—(NH3)2Cl]^+ from PtEuL. […] The photo-dissociation of PtEuL (3 μM in Tris-buffer, pH=7.4, 50 mM NaCl) was monitored by the variation of the Eu emission (λem=615 nm, ^5D0→^7F2) with the irradiation time. […] The pseudo-first order rate constant k was determined to be 0.53 min^−1 under these experimental conditions (FIG. 28D).
# HeLa cells [5] = assay: Confocal microscopy of light-induced cytotoxicity of RuEuL; format: cell-based, human; settings: 50 μM RuEuL or 10 μM PtEuL, 6 hours, 7 mW
# Description: The light-induced cytotoxicity of RuEuL towards HeLa cells was also investigated by confocal microscopy (FIG. 26B) with the PtEuL complex tested under identical conditions for comparison. […] In cell culture studies, red Eu(III) emission from RuEuL was observed after 15-min irradiation. (FIG. 26A) The emission intensity increased with longer irradiation time because more excitation energy induced the dissociation of more Ru(II) moieties from the parent molecules, and the resulting EuL units generated stronger light emission. […] PtEuL is photo-activated upon ultraviolet A irradiation (λ=365 nm). However, UVA irradiation could cause severe adverse effects on human cells.
# Plasmid DNA [6] = assay: Agarose gel electrophoresis of plasmid DNA after UVA irradiation (PtEuL); format: biochemical; settings: 20 μM, UVA light dose 50 J m^−2
# Description: The DNA gel images were obtained using GelRed Nucleic Acid Stain (BIOTIUM).
# as §1
# A549 = assay: Dark cytotoxicity of Eu(III) complexes on A549 cells; format: cell-based
# Plasmid DNA [7] = assay: Agarose gel electrophoresis of plasmid DNA with RuEuL / EuL; format: biochemical; settings: 20 μM
# Method: Furthermore, the interaction of photo-activated RuEuL with DNA was examined by agarose gel electrophoresis (FIG. 24). Plasmid DNA (22.5 μg/mL in Tris/EDTA (TE) buffer) was incubated with the compounds (20 μM), irradiated by 488 nm light (dose 50 J m^−2) or not (control) and then subjected to 1% agarose gel electrophoresis. The separated DNA was stained with GelRed Nucleic Acid Stain (BIOTIUM) and imaged using Tanon 1600 Gel Imaging System (Tanon Science & Technology Co., Ltd).
# [8] = mean ± SD of three independent experiments
Compound,"concentration at which red emission was observed in the cell (HeLa cells [1]; 24 hours incubation, 30 min intermittent two-photon excitation 730 nm)","IC50 (HeLa cells [2]; HeLa, 6 hours in the dark then irradiation (488 nm, 1 J), read-out: light IC50)",direct binding with DNA in dark (CD) (Plasmid DNA [3]),IC50 (HeLa; [8]),"pseudo-first order rate constant k (I/I0 @ 615 nm vs. time) ([4]; 3 μM in Tris-buffer pH 7.4, 50 mM NaCl, UVA 365 nm)","pseudo-first order rate constant k for the dissociation of the cisplatin unit ([4]; tris buffer pH 7.4, UV 365 nm, 5 mW)",cell damage and red emission on 488 nm laser irradiation (HeLa cells [5]),DNA photocleavage activity (Plasmid DNA [6]),IC50 (A549; [8]),"red emission from treated cells (HeLa cells [1]; identical conditions, up to 100 μM)",toxicity towards HeLa cells (HeLa cells [2]; control),toxicity towards HeLa (HeLa; identical conditions),interaction with DNA (Plasmid DNA [7]),toxicity towards A549 (A549; identical conditions)
O.O=[N+]([O-])[O-].[Eu+3].[NH3+][Pt-2]([NH3+])([Cl])[n+]1ccc(C(=O)Nc2ccc(C#Cc3ccnc(CN4CCN(CC(=O)[O-])CCN(CC(=O)[O-])CCN(CC(=O)[O-])CC4)c3)cc2)cc1 [PtEuL],> 2 µM,22.9 µM,can directly bind to DNA and unwind its helix,22.5 ± 0.5 µM,0.53 min⁻¹,0.053 min⁻¹,no red emission or cell death,strong DNA photocleavage activity,49.5 ± 0.1 µM,,,,,
O.O=C([O-])CN1CCN(CC(=O)[O-])CCN(Cc2cc(C#Cc3ccc(NC(=O)c4ccncc4)cc3)ccn2)CCN(CC(=O)[O-])CC1.[Eu+3] [EuL],,,,,,,,not at all,,no red emission was detected,almost no toxicity,no toxicity,does not interact with DNA,no toxicity
